Data as given in patent US20230143604A1, “QW DOSING OF GIP RECEPTOR AGONIST PEPTIDE COMPOUNDS AND USES THEREOF” (TAKEDA PHARMACEUTICAL COMPANY LIMITED, priority 2020, published 2023).
Like-named read-outs stand apart in the source and are kept apart here. Positions of bridges follow the written chain, without caps; N, C: chain ends. Non-standard residues stand in square brackets, D forms with d. Chains are numbered I, II in the order given. *: point of attachment. C18 diacid = O=C(O)CCCCCCCCCCCCCCCCC(=O)*; NMeY = CN[C@@H](Cc1ccc(O)cc1)C(=O)O; Aib = CC(C)(N)C(=O)O

Legend:
human GIPR = molecular target: T1, human GIPR (Homo sapiens, UniProt P48546); experiment: Human GIPR agonist activity, intracellular cAMP accumulation; assay type: cell-based
T1 construct: HEK-293T cells overexpressing full-length human GIPR; FLAG (N); host or cells: HEK-293T
T1 sequence (P48546 22-466): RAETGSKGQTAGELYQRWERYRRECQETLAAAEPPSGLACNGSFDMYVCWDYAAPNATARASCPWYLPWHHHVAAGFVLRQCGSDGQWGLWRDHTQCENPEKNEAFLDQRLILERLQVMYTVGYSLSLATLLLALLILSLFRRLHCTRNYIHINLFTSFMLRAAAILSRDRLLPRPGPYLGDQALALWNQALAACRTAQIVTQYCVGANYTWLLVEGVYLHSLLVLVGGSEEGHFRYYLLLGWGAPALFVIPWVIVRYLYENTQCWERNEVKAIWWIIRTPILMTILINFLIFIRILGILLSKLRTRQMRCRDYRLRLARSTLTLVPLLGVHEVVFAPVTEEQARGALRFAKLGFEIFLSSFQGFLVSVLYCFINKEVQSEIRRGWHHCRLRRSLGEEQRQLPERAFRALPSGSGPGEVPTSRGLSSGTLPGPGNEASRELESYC
Experimental: Cells are cultured per the manufacturer's protocol in DMEM with 10% fetal bovine serum and 1 μg/mL puromycin and stored in frozen aliquots to be used as assay ready cells. On the day of the assay, cells are removed from frozen storage, washed two times in 1× Kreb's Ringer Buffer (Zenbio, Research Triangle Park, N.C.), and re-suspended to a concentration of 4×10^5 cells/mL in 1× Kreb's Ringer Buffer. […] Cells are incubated with test compound for 1 hr at room temperature in the dark, and cAMP accumulation is measured using the Cisbio HiRange cAMP assay kit (Bedford, Mass.) per the manufacturer's protocol. Anti-cAMP antibody and d2-cAMP tracer reagents diluted in lysis/detection buffer are incubated in the dark for 1 hr, and results are measured on an Envision plate reader (Perkin Elmer, Waltham, Mass.). Data is normalized using 1 nM GIP as 100% activity, and DMSO alone as 0% activity.

[1] = Solubility in phosphate buffer pH 7.4
Procedure, shortened: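 Solubility at pH 7.4 determined by stepwise addition of 200 mM phosphate buffer in 100 μL increments to 3 mg peptide, mixing briefly each time, until no insoluble material remained, then measured by liquid chromatography.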

human GLP-1R = molecular target: T2, human GLP-1R (Homo sapiens, UniProt P43220); experiment: Human GLP1R agonist activity, intracellular cAMP accumulation; assay type: cell-based; conditions: HEK-293T cells overexpressing human GLP-1R, 1 hr
T2 construct: HEK-293T cells overexpressing full-length human GLP-1R; FLAG (N); host or cells: HEK-293T
T2 sequence (P43220 24-463): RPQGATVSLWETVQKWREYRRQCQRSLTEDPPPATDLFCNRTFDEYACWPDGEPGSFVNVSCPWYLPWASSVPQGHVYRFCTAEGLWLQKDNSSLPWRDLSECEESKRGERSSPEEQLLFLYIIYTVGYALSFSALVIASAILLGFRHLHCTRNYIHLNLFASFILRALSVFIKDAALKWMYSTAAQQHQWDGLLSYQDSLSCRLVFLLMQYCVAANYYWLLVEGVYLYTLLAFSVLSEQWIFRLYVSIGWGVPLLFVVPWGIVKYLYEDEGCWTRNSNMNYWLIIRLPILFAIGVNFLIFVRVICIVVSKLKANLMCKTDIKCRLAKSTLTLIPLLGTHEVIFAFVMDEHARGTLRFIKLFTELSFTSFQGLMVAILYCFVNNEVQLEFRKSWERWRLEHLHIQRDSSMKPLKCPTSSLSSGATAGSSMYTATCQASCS
Procedure, shortened: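 cAMP accumulation is measured by HTRF after a 1 hr, room-temperature, dark exposure of thawed cells (4×10^5 cells/mL in Krebs Ringer buffer) to compound. Activity is scaled between DMSO alone as 0% and 1 nm GLP-1 as 100%.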

C57BL/6J mice = experiment: Oral glucose tolerance test (OGTT); assay type: in vivo; conditions: 3 nmol/kg s.c., 24 hours before glucose loading
Procedure, shortened: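 Peptide or vehicle given s.c. at 0.1, 0.3, 3 or 10 nmol/kg (peptide-dependent), 24 h before oral 50% dextrose at 5 ml/kg unless stated otherwise. Blood glucose read at 0, 15, 30 and 60 min. % inhibition = (1−(AUC cpd−AUC naïve)/(AUC veh−AUC naïve))×100.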

Dogs = assay type: in vivo; conditions: 10 nmol/kg s.c.
Experimental: Dogs are transferred to an observation cage (700 mm W×700 mm D×700 mm H [W×D×H], without food) on 1 day before each apomorphine challenge. The dogs are weighed by using an electronic balance then test peptide compounds and vehicle will be administrated via the subcutaneous route. Apomorphine is challenged at 8 hr after the administration and emetic events will be monitored for 1 h by video recording. The second apomorphine challenge will be 72 hr after the administration and emetic events will be recorded by the same protocol. Emesis symptoms are continuously recorded using a video camera and stored on a blue ray disc. Observation of symptoms include retching (a rhythmic contraction of the abdomen) and vomiting (vomiting behavior, including the elimination of vomitus or similar behavior). Besides, the combination of retching and vomiting is defined as emesis, and the number of episodes, latency (time elapsed from morphine administration until the onset of the first emesis symptom), duration (time elapsed between the onset of the first and final episodes of emesis), and frequency (number of animals showing emesis/number of experimental animals) of each of these symptoms is calculated. The latency in cases where emesis symptoms are not noted is taken as the maximum value (1 h for apomorphine challenge) at the end of observation. When the duration of the emesis symptoms is less than 1 min, the duration is recorded, for convenience, as 1 min.

[2] = pH 7.4, aqueous buffer, pH 7.4 Phosphate Buffer - Solubility, 200 mM Phosphate buffer pH 7.4
[3] = pH 7.4, solubility in phosphate buffer at pH 7.4, 200 mM phosphate buffer pH 7.4
[4] = Human GLP1R cAMP EC50, HEK293T (nM)
[5] = HEK-293T cells overexpressing human GIPR, cAMP accumulation, 1 hr, read-out: Human GIPR cAMP EC50, HEK293T
[6] = read-out: Human GLP1R cAMP EC50, HEK293T

CC[C@H](C)[C@H](NC(=O)[C@H](CO)NC(=O)[C@H](Cc1ccc(O)cc1)NC(=O)[C@H](CC(=O)O)NC(=O)[C@H](CO)NC(=O)[C@@H](NC(=O)[C@H](Cc1ccccc1)NC(=O)[C@@H](NC(=O)CNC(=O)[C@H](CCC(=O)O)NC(=O)C(C)(C)NC(=O)[C@H](Cc1ccc(O)cc1)NC)[C@@H](C)O)[C@@H](C)CC)C(=O)N[C@@H](C)C(=O)N[C@@H](CCCCNC(=O)CNC(=O)CNC(=O)CNC(=O)CNC(=O)CNC(=O)CCCCCCCCCCCCCCCCC(=O)O)C(=O)N[C@@H](CC(=O)O)C(=O)N[C@@H](CCCNC(=N)N)C(=O)NC(C)(C)C(=O)N[C@@H](C)C(=O)N[C@@H](CCC(N)=O)C(=O)NC(C)(C)C(=O)N[C@@H](CC(=O)O)C(=O)N[C@@H](Cc1ccccc1)C(=O)N[C@H](C(=O)N[C@@H](CC(N)=O)C(=O)N[C@@H](Cc1c[nH]c2ccccc12)C(=O)N[C@@H](CC(C)C)C(=O)N[C@@H](CC(C)C)C(=O)N[C@@H](C)C(=O)N[C@@H](CCC(N)=O)C(=O)N[C@@H](CCCNC(=N)N)C(=O)N1CCC[C@H]1C(=O)N[C@@H](CO)C(=O)N[C@@H](CO)C(=O)NCC(=O)N[C@@H](C)C(=O)N1CCC[C@H]1C(=O)N1CCC[C@H]1C(=O)N1CCC[C@H]1C(=O)N[C@@H](CO)C(=O)O)C(C)C [Compound 43]
EC50 (human GIPR): 0.001 nM
solubility [1, 2]: ≥ 30 mg/mL
solubility [1, 3]: ≥ 15 mg/mL
EC50 (human GLP-1R; [4]): 61.7 nM
Oral Glucose Tolerance Test Percent decrease in blood glucose AUC (%) over 60 mins (C57BL/6J mice): 97% (3 nmol/kg)

CC[C@H](C)[C@H](NC(=O)[C@H](Cc1ccccc1)NC(=O)[C@@H](NC(=O)CNC(=O)[C@H](CCC(=O)O)NC(=O)C(C)(C)NC(=O)[C@H](Cc1ccc(O)cc1)NC)[C@@H](C)O)C(=O)N[C@@H](CO)C(=O)N[C@@H](CC(=O)O)C(=O)N[C@@H](Cc1ccc(O)cc1)C(=O)N[C@@H](CO)C(=O)N[C@H](C(=O)NC(C)(C)C(=O)N[C@@H](CCCCNC(=O)CNC(=O)CNC(=O)CNC(=O)CNC(=O)CNC(=O)CCCCCCCCCCCCCCCCCCC(=O)O)C(=O)N[C@@H](CC(=O)O)C(=O)N[C@@H](CCCNC(=N)N)C(=O)NC(C)(C)C(=O)N[C@@H](C)C(=O)N[C@@H](CCC(N)=O)C(=O)NC(C)(C)C(=O)N[C@@H](CC(=O)O)C(=O)N[C@@H](Cc1ccccc1)C(=O)N[C@H](C(=O)N[C@@H](CC(N)=O)C(=O)N[C@@H](Cc1c[nH]c2ccccc12)C(=O)N[C@@H](CC(C)C)C(=O)N[C@@H](CC(C)C)C(=O)N[C@@H](C)C(=O)N[C@@H](CCC(N)=O)C(=O)N[C@@H](CCCNC(=N)N)C(=O)NCC(=O)O)C(C)C)[C@@H](C)CC [Compound 67]
EC50 (human GIPR; [5]): 0.0013 nM
solubility ([1]; pH 7.4): ≥ 15 mg/mL
solubility ([1]; pH 7.4, aqueous buffer): ≥ 30 mg/mL
EC50 (human GLP-1R; [6]): 33.9 nM

CC[C@H](C)[C@H](NC(=O)[C@H](CO)NC(=O)[C@H](Cc1ccc(O)cc1)NC(=O)[C@H](CC(=O)O)NC(=O)[C@H](CO)NC(=O)[C@@H](NC(=O)[C@H](Cc1ccccc1)NC(=O)[C@@H](NC(=O)CNC(=O)[C@H](CCC(=O)O)NC(=O)C(C)(C)NC(=O)[C@H](Cc1ccc(O)cc1)NC)[C@@H](C)O)[C@@H](C)CC)C(=O)N[C@@H](C)C(=O)N[C@@H](CCCCNC(=O)CNC(=O)CNC(=O)CNC(=O)CNC(=O)CNC(=O)CCCCCCCCCCCCCCCCC(=O)O)C(=O)N[C@@H](CC(=O)O)C(=O)N[C@@H](CCCNC(=N)N)C(=O)NC(C)(C)C(=O)N[C@@H](C)C(=O)N[C@@H](CCC(N)=O)C(=O)NC(C)(C)C(=O)N[C@@H](CC(=O)O)C(=O)N[C@@H](Cc1ccccc1)C(=O)N[C@H](C(=O)N[C@@H](CC(N)=O)C(=O)N[C@@H](Cc1c[nH]c2ccccc12)C(=O)N[C@@H](CC(C)C)C(=O)N[C@@H](CC(C)C)C(=O)N[C@@H](C)C(=O)N[C@@H](CCC(N)=O)C(=O)N[C@@H](CO)C(=O)N1CCC[C@H]1C(=O)N[C@@H](CO)C(=O)N[C@@H](CO)C(=O)NCC(=O)O)C(C)C [Compound 116]
EC50 (human GIPR; [5]): 0.001 nM
solubility ([1]; pH 7.4): ≥ 15 mg/mL
solubility ([1]; pH 7.4, aqueous buffer): ≥ 30 mg/mL
EC50 (human GLP-1R; [6]): 110 nM

CC[C@H](C)[C@H](NC(=O)[C@H](CO)NC(=O)[C@H](Cc1ccc(O)cc1)NC(=O)[C@H](CC(=O)O)NC(=O)[C@H](CO)NC(=O)[C@@H](NC(=O)[C@H](Cc1ccccc1)NC(=O)[C@@H](NC(=O)CNC(=O)[C@H](CCC(=O)O)NC(=O)C(C)(C)NC(=O)[C@@H](N)Cc1ccc(O)cc1)[C@@H](C)O)[C@@H](C)CC)C(=O)N[C@@H](C)C(=O)N[C@@H](CCCCNC(=O)CNC(=O)CNC(=O)CNC(=O)CNC(=O)CNC(=O)CCCCCCCCCCCCCCCCC(=O)O)C(=O)N[C@@H](CC(=O)O)C(=O)N[C@@H](CCCNC(=N)N)C(=O)NC(C)(C)C(=O)N[C@@H](C)C(=O)N[C@@H](CCC(N)=O)C(=O)NC(C)(C)C(=O)N[C@@H](CC(=O)O)C(=O)N[C@@H](Cc1ccccc1)C(=O)N[C@H](C(=O)N[C@@H](CC(N)=O)C(=O)N[C@@H](Cc1c[nH]c2ccccc12)C(=O)N[C@@H](CC(C)C)C(=O)N[C@@H](CC(C)C)C(=O)N[C@@H](C)C(=O)N[C@@H](CCC(N)=O)C(=O)N[C@@H](CO)C(=O)N1CCC[C@H]1C(=O)NCC(=O)O)C(C)C [Compound 128]
solubility ([1]; pH 7.4): ≥ 15 mg/mL
solubility ([1]; pH 7.4, aqueous buffer): ≥ 30 mg/mL
Oral Glucose Tolerance Test Percent decrease in blood glucose AUC (%) over 60 mins (C57BL/6J mice): 57% (3 nmol/kg)
% inhibition of emetic events at doses (nmol/kg) shown in dog apomorphine model (Dogs; after 8 hrs (upper)): 56% (10 nmol/kg)
% inhibition of emetic events at doses (nmol/kg) shown in dog apomorphine model (Dogs; after 72 hours (lower)): 60% (10 nmol/kg)

CC[C@H](C)[C@H](NC(=O)[C@H](Cc1ccccc1)NC(=O)[C@@H](NC(=O)CNC(=O)[C@H](CCC(=O)O)NC(=O)C(C)(C)NC(=O)[C@@H](N)Cc1ccc(O)cc1)[C@@H](C)O)C(=O)N[C@@H](CO)C(=O)N[C@@H](CC(=O)O)C(=O)N[C@@H](Cc1ccc(O)cc1)C(=O)N[C@@H](CO)C(=O)N[C@H](C(=O)NC(C)(C)C(=O)N[C@@H](CCCCNC(=O)CNC(=O)CNC(=O)CNC(=O)CNC(=O)CNC(=O)CCCCCCCCCCCCCCCCC(=O)O)C(=O)N[C@@H](CC(=O)O)C(=O)N[C@@H](CCCNC(=N)N)C(=O)NC(C)(C)C(=O)N[C@@H](C)C(=O)N[C@@H](CCC(N)=O)C(=O)NC(C)(C)C(=O)N[C@@H](CC(=O)O)C(=O)N[C@@H](Cc1ccccc1)C(=O)N[C@H](C(=O)N[C@@H](CC(N)=O)C(=O)N[C@@H](Cc1c[nH]c2ccccc12)C(=O)N[C@@H](CC(C)C)C(=O)N[C@@H](CC(C)C)C(=O)N[C@@H](C)C(=O)N[C@@H](CCC(N)=O)C(=O)N[C@@H](CCCNC(=N)N)C(=O)NCC(=O)O)C(C)C)[C@@H](C)CC [Compound 137]
EC50 (human GIPR; [5]): 0.0013 nM
solubility ([1]; pH 7.4): ≥ 15 mg/mL
solubility ([1]; pH 7.4, aqueous buffer): ≥ 30 mg/mL
EC50 (human GLP-1R; [6]): 3.47 nM
Oral Glucose Tolerance Test Percent decrease in blood glucose AUC (%) over 60 mins (C57BL/6J mice): 23% (3 nmol/kg)

I: H-[NMeY][Aib]EGTFISDYSIALDR[Aib]AQ[Aib]KFVNWLLAQSPSSGAPPPS-OH / II: {C18 diacid}-PAPAPGG (amide I:21-II:C) [Compound 103]
EC50 (human GIPR): 0.0017 nM
solubility [1, 2]: ≥ 60 mg/mL
solubility [1, 3]: ≥ 15 mg/mL
EC50 (human GLP-1R; [4]): 29.5 nM
